The values below come from patent US9888679B2, “Protection of progenitor cells and regulation of their differentiation” (Proteobioactives Pty Ltd, priority 2007, dated 2018).

One test concerns human progenitor cells. Put plainly: Proteoglycan synthesis in micromass cultures, 5 days. The conditions noted are these: FIG. 17. The format is cell-based. From the text:
FIG. 17. Bar graphs showing the concentration dependent effects of PPS on proteoglycan synthesis by human progenitor cells in micromass cultures for 5 days. Data is presented as 35S-GAG radioactivity and as a percentage of control taken as 100%. * P<0.05 relative to control.
FIG. 19. Bar graphs showing the concentration dependent effects of (A) Hyaluronan (Supartz™) and (B) Dextran Polysulfate on proteoglycan synthesis by human progenitor cells in micromass cultures for 5 days. Data is presented as ^35S-GAG radioactivity and as a percentage of control, taken as 100% or as DPM/ug DNA. * P<0.05 relative to control.
The technique used was based on that described by (Denker A E, Haas A R, Nicoll S B and Tuan R S. Chondrogenic differentiation of murine C3H10T1/2 multipotential progenitor cells: I. Stimulation by bone morphogenetic protein-2 in high density micromass cultures. Differentiation (1999); 64: 67-76). Briefly murine Progenitor cells (cell lines C3H10T1/2 or ATDC5) purchased from RIKEN Cell Bank (Tsukuba, Japan) or human immunoselected Stro-1+ Progenitor cells (Mesoblast Ltd, Melbourne, Australia) Ten microlitres (10 μl) of a suspension of the progenitor cells (1×10^7 cells/ml in Ham's F12 medium+10% FBS) were applied to individual wells of a 24-well plates. After incubatation at 37° C. in a humidified atmosphere of 5% CO2/95% air for 2-3 hours, 900 μl of Ham's F12 medium (10% FBS) and 100 μl of PPS solution in the same medium were added slowly into the wells to afford final concentrations of PPS in each of 0, 0.1, 0.5, 1.0, 2.5, 5.0, 10.0, 20.0 μg/ml alone or in combination with rhNC4 (0, 0.1, 0.5, 1.0, 2.5, 5.0, 10.0, 25.0 μg/ml). Each drug concentration was repeated in triplicate. The cells were maintained in culture for up to 10 days. The medium with/without drugs was changed every 3 days but 24 hours before termination of the experiment 80 μl of 50 μCi/ml ^35S-H2SO4 was added to achieve a final ^35SO4 concentration of 5 μCi/ml. The following day, the cells in one of the plates were trypsinized with 150 μl/well of 2.5% trypsin and separated from the medium by centrifugation at 800 g for 10 minutes, washed with 500 μl of 1×PBS and stored in liquid nitrogen for RNA and/or DNA extraction and analysis. Media and supernatants were combined in one tube for each concentration of PPS used. To the tubes was added, 200 μl of 5× Papain solution [2.5 mg/ml Papain, 7.9 mg/ml L-Cysteine in Papain buffer (0.1 M NaAC, 5 mM EDTA, pH6.0)] and the solution incubated at 65° C. for 2 hours. After papain digestion, Four aliquots of 200 μl of digested solution were transferred to a 96-well plate (200 μl/well). The ^35S-GAG released by the digestion step were separated from the free ^35SO4 by adding 20 μl 5% CPC and 10 μl 1 mg/ml CSA with gentle shaking at 300 rpm RT for 20-30 min to precipitate the ^35S-GAG-CPC complexes. The precipitates were collected by filtered through glass fibre filters using a cell harvester. The filters were then air-dried and discs punched to scintillation vials. 3 ml/vial scintillation cocktail liquid was added and vortexed for 30-45 sec. The radioactivity of ^35S—SO4 incorporated the ^35S-GAG-CPC complexes was measured by scintillation counting.
Data is presented as 35S-GAG radioactivity and as a percentage of control taken as 100%. * P<0.05 relative to control.
Similar experiments were undertaken using Hyaluronic acid (SuperArtz (SKK, Tokyo, Japan)) and Dextran polysulfate (MW=5000) (Sigma, Sydney, Australia) in place of PPS. […] Data is presented as 35S-GAG radioactivity and as a percentage of control taken as 100% or as DPM/ug DNA. * P<0.05 relative to control.

The next test has as its system Primary progenitor cells. Put plainly: Differentiation in adipogenic media: adipocyte formation, Oil Red O. The format is cell-based, human. The note with it: FIG. 8; for differentiation of progenitor cells into adipocytes: adipogenic media, 1.0, 5.0, 10 micrograms/mL. On the procedure:
FIG. 8. The Effects of Pentosan Polysulfate (PPS) on Human progenitor cell Differentiation: Adipocyte Formation. Primary progenitor cells were cultured in 96 well plates in non-adipogenic growth media (media control) or under adipogenic conditions (0.5 mM methylisobutylmethylxanthine, 0.5 μM hydrocortisone, and 60 μM indomethacin) in the presence of PPS at the indicated concentrations. On day 28, the presence of lipid laden adipocytes was determined using the lipophilic dye Oil Red O. The relative amount of solubilised lipid per μg of DNA/well was determined following the assessment of the total amount of DNA per well using a fluorogenic DNA stain (Hoeshst 33258). […] (A) Phase-contrast photomicrographs of Oil Red O labeled adipocytes at ×20 magnification.
The conditions required for the development of lipids from human bone marrow stromal cells in vitro have been previously described (Gimble J. Marrow stromal adipocytes. In: Marrow stromal cell culture. J N Beresford, Owen, M. E., ed. Cambridge University Press, Cambridge, pp 67-87 (1998)). Briefly, human progenitor cells were seeded into 96-well plates at a density of 8×10^3 cells per well in complete alpha-MEM growth media and were allowed to reach >90% confluence prior to addition of inductive media. Cells were cultured in adipogenic-inductive media comprised of complete alpha-MEM supplemented with 0.5 mM 3-Isobutyl-1-methyl-xanthine (IBMX), 60 microM Indomethacin, and 0.5 microM Hydrocortisone in the presence of a titration of PPS (0.0, 1.0, 5.0, 10 micrograms/mL). The inductive media was changed twice weekly for a period of 4 weeks. Cells were stained for the presence of lipid using Oil Red ‘O’.
Cells were cultured as described above and gently rinsed in 1×PBS (pH7.4) to avoid disruption of the cell monolayer. Cells were fixed in phosphate buffered formalin for 15 minutes at RT. The fixative was subsequently removed and lipid stained by adding 100 microL of freshly filtered Oil Red O (3 mg/mL; MP Biomedicals, Australia) for ≧2 hours at RT. […]

In the case of pentosan polysulfate [PPS], the “maximum stimulation of PG synthesis” value in the test with human progenitor cells (2.5 micrograms/mL, 5 day micromass cultures) was 30%. In addition, in the test with human progenitor cells (PPS 0.5-10 μg/ml, 5 day micromass), the proteoglycan synthesis result is “Increased proteoglycan synthesis”. For the same substance, the “adipocyte number (Oil Red O lipid per μg DNA)” value in the test on Primary progenitor cells (adipogenic conditions, day 28, PPS in excess 1 ug/ml, p<0.01, ANOVA) was “statistically significant increase in adipocyte number”. In addition, the “differentiation of progenitor cells into adipocytes” value in the test on Primary progenitor cells is recorded as “upregulation seen at all concentrations”; with Primary progenitor cells (listed as polysulfated polysaccharides), “showed differentiated to adipocytes”.
